Results from patent US5494803A, “Immunodiagnostic assay using liposomes carrying labels thereof on outer liposome surface” (North Carolina State University, priority 1994, dated 1996).

Key:
[1] = biological target: anti-biotin antibody (ABA); assay: C^14-biotin adsorption to antibody-coated PMMA slides (radioimmunoassay isotherm, Langmuir fit); assay type: binding
Protocol: The adsorption of biotin to the antibody-coated PMMA surface was studied by exposing the surfaces to C^14 -labeled biotin, washing the slides, and determining the amount of radioactivity remaining on the solid support at different initial concentrations of biotin in the bulk solution. Four PMMA slides (1.5 cm×1.5 cm) coated with antibody, as described above, were incubated in 10 ml of C^14 -biotin PBS solutions in the concentration range from 10^-8 to 10^-4 M. After a ninety minute exposure, the slides were dipped quickly in 200 ml of deionized water to remove unbound C^14 -biotin from the surface. The radioactivity of the slides was determined by scintillation counting. […] As a control, the non-specific adsorption of C^14 -biotin to PMMA alone and to BSA-covered PMMA was tested the same way, using a C^14 -biotin concentration of 10^-4 M.
The ability of the antibody-covered surface to bind biotin based on the results of radioimmunoassays is indicated by the isotherm shown in FIG. 3. The number of moles of biotin bound per unit area of surface is shown as a function of the initial concentration of biotin to which the surface was exposed. […] Assuming that each antibody molecule adsorbed to the surface can bind two biotin molecules, this corresponds to 0.88×10^-12 moles of active ABA/cm^2. […]
The quantity av is the ratio (A/V) which equals 1.88 cm^-1 in these experiments. […]

[2] = tested on: anti-biotin antibody (ABA)
Protocol: The adsorption of fluorescent biotin-conjugated liposomes and FITC-Biotin to the surface of the PMMA cuvettes was studied by measuring the amount of fluorescence remaining on the surface of the cuvette after exposure to a known concentration of fluorescent species and a washing step with PBS. One milliliter of solution containing fluorescent species was injected into the inlet of the cuvette 27 with a syringe, and the solution was allowed to stand in the cuvette for either half an hour or an hour, depending on the experiment. Unbound fluorescent molecules were then washed from the cuvette by pumping PBS with a peristaltic pump at a flow rate of 1 /min. After washing, the shutter 22 on the laser 21 was opened for a few seconds, until the digital reading on the photomultiplier tube counter 30 stabilized. This was recorded as the fluorescent signal in kilo-counts per second (KCPS) coming from the interface. […] This was done when it was necessary to investigate the role of the washing step in reducing the measured fluorescence signal. […]
The maximum signal obtained for adsorbed vesicles, at very high molar concentrations of liposomes, is approximately 1250 KCPS. The quantity λL is estimated by taking the measured fluorescence at a given set of concentrations, and dividing by the maximum signal value for full surface coverage.

[3] = tested on: Anti-Biotin Antibody; settings: half-hour exposure, ten-minute PBS wash
Protocol: PMMA cuvettes were cleaned by sonication for twelve hours in RBS solution, followed by sonication in deionized water for twenty-four hours. The cuvettes were incubated in 0.2 ml of 40 μg/ml of anti-biotin antibody (ABA) solution in PBS for two hours at room temperature and rinsed with 0.4 ml PBS twice to remove unbound antibody. The cuvettes were then incubated in 0.2 ml of 3 weight % BSA solution in PBS as a blocking agent for one hour at room temperature, and rinsed twice with 0.4 ml of PBS. […]
A manual shutter 22 was attached to the laser so that essentially no light would reach the sample when the shutter was closed. […] The emitted fluorescence was detected by a photomultiplier tube 29 (Hamamatsu Co., Hamamatsu, Japan). A 520 nm filter 28 was placed on top of the tube so that only the emitted light from fluorescein would be measured. The output from the photomultiplier 29 was sent to a preamplifier, not shown, (Model C716, Hamamatsu) and recorded using a digital photon counter 30 (Model C1230, Hamamatsu). […]
The adsorption of fluorescent biotin-conjugated liposomes and FITC-Biotin to the surface of the PMMA cuvettes was studied by measuring the amount of fluorescence remaining on the surface of the cuvette after exposure to a known concentration of fluorescent species and a washing step with PBS. […]

Row | Compound | Kd ([1]; Langmuir isotherm best fit, PMMA coated with ABA, blocked with BSA, PBS, read-out: equilibrium binding constant K (KB) of biotin on adsorbed ABA (converted)) [nM] | saturation level of biotin bound per unit area of surface ([1]; biotin concentrations greater than 10^-4 M) | free biotin concentration at which the decrease in fluorescence commences (experimental) ([2]; liposomes 0.01 or 0.03 mg/ml) | free biotin concentration at which fluorescence should decrease significantly (simple Langmuir model) ([2]; predicted from KB and KL) | association constant of FITC-Biotin to ABA (in words) [3]
1 | O=C(O)CCCC[C@@H]1SC[C@@H]2NC(=O)N[C@@H]21 [biotin] | 400 | approximately 1.8×10^-12 moles of biotin/cm^2 | approximately 2×10^-5 M | approximately 4×10^-7 M | –
2 | fluorescein isothiocyanate-biotin [FITC-Biotin] | – | – | – | – | very low association constant
